# Measured values published in publication PMC8286840, “Identifying SARS-CoV-2 antiviral compounds by screening for small molecule inhibitors of Nsp3 papain-like protease” (Biochemical Journal, 2021).
# Where a name gives a salt, the structure may show the parent alone. Read-outs that look alike come from different tables or passages of the source.
# Legend:
# [1] = molecular target: T1, SARS-CoV-2 PLpro (nsp3 1564–1878) (Severe acute respiratory syndrome coronavirus 2, UniProt P0DTD1); test: biochemical; set-up: FRET-quenched peptide (Pro3) cleavage by PLpro, 10 min pre-incubation, slope over 20 min, normalised to no-compound control; conditions: read-out: % of control remaining
# [2] = molecular target: T1, SARS-CoV-2 PLpro (nsp3 1564–1878); test: biochemical; set-up: FRET-quenched peptide (Pro3) cleavage by PLpro, 10 min pre-incubation, slope over 20 min, normalised to no-compound control; conditions: read-out: % of control remaining; remark: listed apart in the source
compound,measurement,setting,value
CC(C)[C@H]1[C@@H]2CC[C@@H](C2)[C@@H]1N [AGN 192403 hydrochloride],remaining activity at 1.25 µM,"[1]; Well no.=116, low concentration screen",101%
same,remaining activity at 3.75 µM,"[2]; Well no.=116, high concentration screen",104%
O=C(O)CCC/C=C\C[C@@H]1[C@@H](/C=C/[C@H](O)C2Cc3ccccc3C2)[C@@H](F)C[C@@H]1O [AL-8810],remaining activity at 1.25 µM,"[1]; Well no.=205, low concentration screen",100%
same,remaining activity at 3.75 µM,"[2]; Well no.=205, high concentration screen",104%
Cc1noc(-c2ccc(-c3ccc(CC(=O)O)cc3)cc2)c1NC(=O)O[C@H](C)c1ccccc1 [AM095],remaining activity at 1.25 µM,"[1]; Well no.=7815, low concentration screen",101%
same,remaining activity at 3.75 µM,"[2]; Well no.=7815, high concentration screen",94%
COc1ccc(C(=O)c2c(C)n(CCN3CCOCC3)c3cc(I)ccc23)cc1 [AM630],remaining activity at 1.25 µM,"[1]; Well no.=5463, low concentration screen",103%
same,remaining activity at 1.25 µM,"[1]; Well no.=7903, low concentration screen",98.5%
same,remaining activity at 3.75 µM,"[2]; Well no.=5463, high concentration screen",107%
same,remaining activity at 3.75 µM,"[2]; Well no.=7903, high concentration screen",106%
Cc1noc(-c2ccc(-c3ccc(CC(=O)O)cc3)cc2)c1NC(=O)O[C@H](C)c1ccccc1Cl [AM966],remaining activity at 1.25 µM,"[1]; Well no.=6941, low concentration screen",104%
same,remaining activity at 3.75 µM,"[2]; Well no.=6941, high concentration screen",102%
CC1(C)CCC(C)(C)c2cc(C(=O)Nc3ccc(C(=O)O)cc3)ccc21 [AM-580],remaining activity at 1.25 µM,"[1]; Well no.=4434, low concentration screen",92.7%
same,remaining activity at 3.75 µM,"[2]; Well no.=4434, high concentration screen",86%
CN1CCCCC1Cn1cc(C(=O)c2cc([N+](=O)[O-])ccc2I)c2ccccc21 (stereo not drawn) [AM-1241],remaining activity at 1.25 µM,"[1]; Well no.=5289, low concentration screen",101%
same,remaining activity at 3.75 µM,"[2]; Well no.=5289, high concentration screen",99%
c1ccc(CNCc2ccc(CN3CCCNCCNCCCNCC3)cc2)nc1 [AMD 3465 (hexahydrobromide)],remaining activity at 1.25 µM,"[1]; Well no.=7245, low concentration screen",90.9%
same,remaining activity at 1.25 µM,"[1]; Well no.=8419, low concentration screen",98.5%
same,remaining activity at 3.75 µM,"[2]; Well no.=7245, high concentration screen",87.4%
same,remaining activity at 3.75 µM,"[2]; Well no.=8419, high concentration screen",92.2%
NCCCCN(Cc1nc2ccccc2[nH]1)[C@H]1CCCc2cccnc21 [AMD-070 (hydrochloride)],remaining activity at 1.25 µM,"[1]; Well no.=7093, low concentration screen",106%
same,remaining activity at 3.75 µM,"[2]; Well no.=7093, high concentration screen",100%
CCOc1ccc(-n2c([C@@H](C)N(Cc3cccnc3)C(=O)Cc3ccc(OC(F)(F)F)cc3)nc3ncccc3c2=O)cc1 [AMG 487],remaining activity at 1.25 µM,"[1]; Well no.=8651, low concentration screen",101%
same,remaining activity at 3.75 µM,"[2]; Well no.=8651, high concentration screen",97.8%
CC#C[C@@H](CC(=O)O)c1ccc(OCc2cccc(-c3ccc(C(F)(F)F)cc3)c2)cc1 [AMG 837 (calcium hydrate)],remaining activity at 1.25 µM,"[1]; Well no.=6944, low concentration screen",98.4%
same,remaining activity at 3.75 µM,"[2]; Well no.=6944, high concentration screen",95.6%
Cc1csc(-c2nnc(Nc3ccc(Oc4ncccc4-c4ccnc(N)n4)cc3)c3ccccc23)c1 [AMG 900],remaining activity at 1.25 µM,"[1]; Well no.=5023, low concentration screen",97.2%
same,remaining activity at 3.75 µM,"[2]; Well no.=5023, high concentration screen",100%
CC(=O)Nc1nc2c(Oc3cc(-c4ccc(C(F)(F)F)cc4)ncn3)cccc2s1 [AMG-517],remaining activity at 1.25 µM,"[1]; Well no.=5176, low concentration screen",102%
same,remaining activity at 3.75 µM,"[2]; Well no.=5176, high concentration screen",99.6%
CNc1nccc(-c2cccnc2Oc2cc(C(=O)Nc3cccc(C(F)(F)F)c3)ccc2C)n1 [AMG-Tie2-1],remaining activity at 1.25 µM,"[1]; Well no.=2788, low concentration screen",97.1%
same,remaining activity at 3.75 µM,"[2]; Well no.=2788, high concentration screen",94.9%
"c1cc(-c2cnn3cc(-c4ccc(OCCN5CCCCC5)cc4)cnc23)ccn1 [AMPK Inhibitor, Compound C]",remaining activity at 1.25 µM,"[1]; Well no.=2324, low concentration screen",98.4%
same,remaining activity at 3.75 µM,"[2]; Well no.=2324, high concentration screen",103%
CC[C@H](C(=O)N1CCCC[C@H]1C(=O)O[C@H](CCc1ccc(OC)c(OC)c1)c1cccc(OCC(=O)O)c1)c1cc(OC)c(OC)c(OC)c1 [AP1867],remaining activity at 1.25 µM,"[1]; Well no.=6982, low concentration screen",103%
same,remaining activity at 3.75 µM,"[2]; Well no.=6982, high concentration screen",100%
CC[C@H](C(=O)N1CCCC[C@H]1C(=O)O[C@H](CCc1ccc(OC)c(OC)c1)c1cccc(OCC(=O)NCC(CNC(=O)COc2cccc([C@@H](CCc3ccc(OC)c(OC)c3)OC(=O)[C@@H]3CCCCN3C(=O)[C@@H](CC)c3cc(OC)c(OC)c(OC)c3)c2)CN(C)C)c1)c1cc(OC)c(OC)c(OC)c1 [AP20187],remaining activity at 1.25 µM,"[1]; Well no.=7174, low concentration screen",98.8%
same,remaining activity at 1.25 µM,"[1]; Well no.=7696, low concentration screen",102%
same,remaining activity at 3.75 µM,"[2]; Well no.=7174, high concentration screen",100%
same,remaining activity at 3.75 µM,"[2]; Well no.=7696, high concentration screen",97.5%
CC(C)OC(=O)N1CCC(Oc2ncnc3c2cnn3-c2ccc(S(C)(=O)=O)cc2F)CC1 [APD668],remaining activity at 1.25 µM,"[1]; Well no.=6274, low concentration screen",105%
same,remaining activity at 3.75 µM,"[2]; Well no.=6274, high concentration screen",104%
O=C(/C=C/c1cccnc1)NCCCCC1CCN(C(=O)c2ccccc2)CC1 [APO866 (FK866)],remaining activity at 1.25 µM,"[1]; Well no.=5123, low concentration screen",99%
same,remaining activity at 3.75 µM,"[2]; Well no.=5123, high concentration screen",94.7%
CCN(CC)c1ncnc2c1ncn2[C@@H]1O[C@H](COP(=O)(O)OP(=O)(O)C(Br)(Br)P(=O)(O)O)[C@@H](O)[C@H]1O [ARL 67156 trisodium salt],remaining activity at 1.25 µM,[1],96%
same,remaining activity at 3.75 µM,[2],96.3%
CNC(=O)c1ccc(N2C(=S)N(c3cnc(C#N)c(C(F)(F)F)c3)C(=O)C23CCC3)cc1F [ARN-509],remaining activity at 1.25 µM,"[1]; Well no.=5169, low concentration screen",105%
same,remaining activity at 3.75 µM,"[2]; Well no.=5169, high concentration screen",101%
C[C@@H]1COC(Nc2ccc3ncnc(Nc4ccc(OCc5nccs5)c(Cl)c4)c3c2)=N1 [ARRY334543],remaining activity at 1.25 µM,"[1]; Well no.=5073, low concentration screen",102%
same,remaining activity at 3.75 µM,"[2]; Well no.=5073, high concentration screen",106%
O=C1NC(=O)/C(=C/c2ccc(-c3ccc(F)cc3O)o2)S1 [AS-252424],remaining activity at 1.25 µM,"[1]; Well no.=2947, low concentration screen",93.9%
same,remaining activity at 3.75 µM,"[2]; Well no.=2947, high concentration screen",97.2%
C=CC(=O)Nc1ccc2ncnc(Nc3ccc(OCc4cccc(F)c4)c(Cl)c3)c2c1 [AST-1306],remaining activity at 1.25 µM,"[1]; Well no.=5142, low concentration screen",101%
same,remaining activity at 3.75 µM,"[2]; Well no.=5142, high concentration screen",100%
Clc1ccc(C2(c3ccc(-c4cn[nH]c4)cc3)CCNCC2)cc1 [AT7867],remaining activity at 1.25 µM,"[1]; Well no.=5295, low concentration screen",95.9%
same,remaining activity at 3.75 µM,"[2]; Well no.=5295, high concentration screen",96.7%
O=C(Nc1c[nH]nc1-c1nc2ccc(CN3CCOCC3)cc2[nH]1)NC1CC1 [AT9283],remaining activity at 1.25 µM,"[1]; Well no.=2884, low concentration screen",93.2%
same,remaining activity at 3.75 µM,"[2]; Well no.=2884, high concentration screen",95.8%
CC(C)c1cc(C(=O)N2Cc3ccc(CN4CCN(C)CC4)cc3C2)c(O)cc1O [AT13387],remaining activity at 1.25 µM,"[1]; Well no.=5061, low concentration screen",95%
same,remaining activity at 3.75 µM,"[2]; Well no.=5061, high concentration screen",99.9%
CN[C@@H](C)C(=O)N[C@H]1CN(C(=O)CC(C)C)CC[C@H]2CC[C@@H](C(=O)NC(c3ccccc3)c3ccccc3)N2C1=O [AT-406],remaining activity at 1.25 µM,"[1]; Well no.=5071, low concentration screen",102%
same,remaining activity at 3.75 µM,"[2]; Well no.=5071, high concentration screen",106%
O=C(NC1CCNCC1)c1n[nH]cc1NC(=O)c1c(Cl)cccc1Cl [AT-7519],remaining activity at 1.25 µM,"[1]; Well no.=2836, low concentration screen",97.9%
same,remaining activity at 3.75 µM,"[2]; Well no.=2836, high concentration screen",98.3%
O=C(NC(NC(=S)Nc1ccc(F)c([N+](=O)[O-])c1)C(Cl)(Cl)Cl)C(c1ccccc1)c1ccccc1 (stereo not drawn) [ATM/ATR Kinase Inhibitor],remaining activity at 1.25 µM,"[1]; Well no.=2312, low concentration screen",98.2%
same,remaining activity at 3.75 µM,"[2]; Well no.=2312, high concentration screen",98.3%
CCNC(=O)c1noc(-c2cc(C(C)C)c(O)cc2O)c1-c1ccc(CN2CCOCC2)cc1 [AUY922 (NVP-AUY922)],remaining activity at 1.25 µM,"[1]; Well no.=5005, low concentration screen",103%
same,remaining activity at 3.75 µM,"[2]; Well no.=5005, high concentration screen",102%
COc1ccc2c(c1)C(c1ccc(F)cc1)=C(CN1CCCC1)CO2 [AX-024 hydrochloride],remaining activity at 1.25 µM,"[1]; Well no.=6930, low concentration screen",97%
same,remaining activity at 3.75 µM,"[2]; Well no.=6930, high concentration screen",95.2%
Cc1ccc(NC(=O)c2cccc(C(C)(C)C#N)c2)cc1Nc1ccc2ncn(C)c(=O)c2c1 [AZ628],remaining activity at 1.25 µM,"[1]; Well no.=5037, low concentration screen",88.5%
same,remaining activity at 3.75 µM,"[2]; Well no.=5037, high concentration screen",94.3%
